Values of other authors in PMC9667546, “Selective Inhibition of Bruton’s Tyrosine Kinase by a Designed Covalent Ligand Leads to Potent Therapeutic Efficacy in Blood Cancers Relative to Clinically Used Inhibitors” (ACS Pharmacology & Translational Science, 2022).

Experiments:
EGFR = target: T1, EGFR (Homo sapiens, UniProt P00533); conditions: Table S3 heat map; ref SI 1-19; cited from earlier work
T1 construct: host or cells: HEK296T (so in the source)

TXK = target: T2, TXK (Homo sapiens, UniProt P42681); conditions: Table S3 heat map; ref SI 1-19; cited from earlier work
T2 construct: host or cells: HEK296T (so in the source)
T2 sequence (P42681 1-527): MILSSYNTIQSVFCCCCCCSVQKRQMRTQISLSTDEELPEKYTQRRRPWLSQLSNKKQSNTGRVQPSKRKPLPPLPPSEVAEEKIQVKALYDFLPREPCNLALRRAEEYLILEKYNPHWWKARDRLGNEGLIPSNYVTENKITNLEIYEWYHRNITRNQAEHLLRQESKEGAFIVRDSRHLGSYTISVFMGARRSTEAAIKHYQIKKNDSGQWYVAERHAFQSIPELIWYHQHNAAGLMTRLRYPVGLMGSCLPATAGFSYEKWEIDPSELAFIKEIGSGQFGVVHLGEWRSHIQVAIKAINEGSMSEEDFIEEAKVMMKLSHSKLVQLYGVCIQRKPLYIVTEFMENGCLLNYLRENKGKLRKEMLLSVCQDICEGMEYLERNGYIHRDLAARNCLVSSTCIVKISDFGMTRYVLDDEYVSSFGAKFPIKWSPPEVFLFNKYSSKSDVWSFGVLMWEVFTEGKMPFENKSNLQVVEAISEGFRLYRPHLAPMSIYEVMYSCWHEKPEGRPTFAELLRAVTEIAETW

Her2 = conditions: read-out: IC50, Her2; Table S3 heat map; ref SI 1-19; cited from earlier work
JAK3 = target: T3, JAK3 (Homo sapiens, UniProt P52333); conditions: Table S3 heat map; ref SI 1-19; cited from earlier work
T3 construct: host or cells: HEK296T (so in the source)

TEC = target: T4, TEC (Homo sapiens, UniProt P42680); conditions: Table S3 heat map; ref SI 1-19; cited from earlier work
T4 construct: host or cells: HEK296T (so in the source)
T4 sequence (P42680 1-631): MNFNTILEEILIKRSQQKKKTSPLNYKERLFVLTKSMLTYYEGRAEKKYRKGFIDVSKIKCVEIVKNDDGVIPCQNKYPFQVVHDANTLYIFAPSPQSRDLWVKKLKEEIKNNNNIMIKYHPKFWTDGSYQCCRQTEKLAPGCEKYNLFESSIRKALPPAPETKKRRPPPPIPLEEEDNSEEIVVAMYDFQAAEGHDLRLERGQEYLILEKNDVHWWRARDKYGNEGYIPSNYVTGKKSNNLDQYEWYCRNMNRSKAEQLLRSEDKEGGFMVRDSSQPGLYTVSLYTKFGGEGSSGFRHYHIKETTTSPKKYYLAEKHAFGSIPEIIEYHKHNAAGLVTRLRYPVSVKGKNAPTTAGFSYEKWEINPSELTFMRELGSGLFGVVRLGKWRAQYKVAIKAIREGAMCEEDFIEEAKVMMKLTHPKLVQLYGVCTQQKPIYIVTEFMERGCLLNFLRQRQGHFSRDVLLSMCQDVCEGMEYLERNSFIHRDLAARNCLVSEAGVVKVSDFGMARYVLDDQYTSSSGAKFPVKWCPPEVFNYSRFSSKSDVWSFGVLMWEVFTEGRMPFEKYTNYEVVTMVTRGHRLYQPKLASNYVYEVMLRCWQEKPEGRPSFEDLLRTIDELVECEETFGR

ITK = target: T5, ITK (Homo sapiens, UniProt Q08881); conditions: Table S3 heat map; ref SI 1-19; cited from earlier work
T5 construct: host or cells: HEK296T (so in the source)
T5 sequence (Q08881 1-620): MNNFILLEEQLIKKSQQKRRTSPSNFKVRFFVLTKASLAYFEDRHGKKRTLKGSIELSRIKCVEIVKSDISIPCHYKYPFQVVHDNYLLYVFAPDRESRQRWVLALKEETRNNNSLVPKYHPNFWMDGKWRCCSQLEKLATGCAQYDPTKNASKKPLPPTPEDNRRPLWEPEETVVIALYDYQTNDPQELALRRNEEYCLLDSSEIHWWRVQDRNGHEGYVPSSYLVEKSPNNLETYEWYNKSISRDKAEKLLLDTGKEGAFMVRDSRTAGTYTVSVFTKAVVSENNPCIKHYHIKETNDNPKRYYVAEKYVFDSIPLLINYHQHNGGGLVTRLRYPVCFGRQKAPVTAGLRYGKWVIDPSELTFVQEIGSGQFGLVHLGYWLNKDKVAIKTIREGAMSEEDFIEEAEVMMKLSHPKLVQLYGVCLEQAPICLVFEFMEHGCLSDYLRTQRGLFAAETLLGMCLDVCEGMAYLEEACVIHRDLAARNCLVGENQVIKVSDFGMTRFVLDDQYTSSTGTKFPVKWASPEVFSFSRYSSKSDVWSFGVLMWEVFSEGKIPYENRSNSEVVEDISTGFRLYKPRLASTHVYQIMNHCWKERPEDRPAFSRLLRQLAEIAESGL

BTK = BTK (Homo sapiens, UniProt Q06187); set-up: purchased Promega Corporation V2941; conditions: Table S3 heat map; ref SI 1-19; read-out: IC50, BTK; cited from earlier work
Chain of BTK (Q06187 whole entry): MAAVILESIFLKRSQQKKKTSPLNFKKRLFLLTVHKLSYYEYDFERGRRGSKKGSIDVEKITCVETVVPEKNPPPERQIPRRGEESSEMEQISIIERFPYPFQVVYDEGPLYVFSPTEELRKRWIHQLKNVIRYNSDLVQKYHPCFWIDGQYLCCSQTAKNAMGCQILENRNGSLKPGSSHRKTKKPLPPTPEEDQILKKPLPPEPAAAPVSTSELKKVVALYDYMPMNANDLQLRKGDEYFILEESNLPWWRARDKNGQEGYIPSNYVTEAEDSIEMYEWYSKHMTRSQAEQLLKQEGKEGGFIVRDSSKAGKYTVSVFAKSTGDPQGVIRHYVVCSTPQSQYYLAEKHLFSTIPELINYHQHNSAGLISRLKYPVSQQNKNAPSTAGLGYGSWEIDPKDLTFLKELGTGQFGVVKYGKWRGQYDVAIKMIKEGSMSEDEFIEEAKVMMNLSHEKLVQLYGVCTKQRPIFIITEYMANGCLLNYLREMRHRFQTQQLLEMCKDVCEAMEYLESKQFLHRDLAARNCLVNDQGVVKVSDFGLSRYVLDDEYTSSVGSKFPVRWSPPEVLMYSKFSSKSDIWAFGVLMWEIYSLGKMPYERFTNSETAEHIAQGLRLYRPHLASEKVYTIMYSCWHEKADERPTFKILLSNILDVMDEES

T1 sequence (P00533 25-1210): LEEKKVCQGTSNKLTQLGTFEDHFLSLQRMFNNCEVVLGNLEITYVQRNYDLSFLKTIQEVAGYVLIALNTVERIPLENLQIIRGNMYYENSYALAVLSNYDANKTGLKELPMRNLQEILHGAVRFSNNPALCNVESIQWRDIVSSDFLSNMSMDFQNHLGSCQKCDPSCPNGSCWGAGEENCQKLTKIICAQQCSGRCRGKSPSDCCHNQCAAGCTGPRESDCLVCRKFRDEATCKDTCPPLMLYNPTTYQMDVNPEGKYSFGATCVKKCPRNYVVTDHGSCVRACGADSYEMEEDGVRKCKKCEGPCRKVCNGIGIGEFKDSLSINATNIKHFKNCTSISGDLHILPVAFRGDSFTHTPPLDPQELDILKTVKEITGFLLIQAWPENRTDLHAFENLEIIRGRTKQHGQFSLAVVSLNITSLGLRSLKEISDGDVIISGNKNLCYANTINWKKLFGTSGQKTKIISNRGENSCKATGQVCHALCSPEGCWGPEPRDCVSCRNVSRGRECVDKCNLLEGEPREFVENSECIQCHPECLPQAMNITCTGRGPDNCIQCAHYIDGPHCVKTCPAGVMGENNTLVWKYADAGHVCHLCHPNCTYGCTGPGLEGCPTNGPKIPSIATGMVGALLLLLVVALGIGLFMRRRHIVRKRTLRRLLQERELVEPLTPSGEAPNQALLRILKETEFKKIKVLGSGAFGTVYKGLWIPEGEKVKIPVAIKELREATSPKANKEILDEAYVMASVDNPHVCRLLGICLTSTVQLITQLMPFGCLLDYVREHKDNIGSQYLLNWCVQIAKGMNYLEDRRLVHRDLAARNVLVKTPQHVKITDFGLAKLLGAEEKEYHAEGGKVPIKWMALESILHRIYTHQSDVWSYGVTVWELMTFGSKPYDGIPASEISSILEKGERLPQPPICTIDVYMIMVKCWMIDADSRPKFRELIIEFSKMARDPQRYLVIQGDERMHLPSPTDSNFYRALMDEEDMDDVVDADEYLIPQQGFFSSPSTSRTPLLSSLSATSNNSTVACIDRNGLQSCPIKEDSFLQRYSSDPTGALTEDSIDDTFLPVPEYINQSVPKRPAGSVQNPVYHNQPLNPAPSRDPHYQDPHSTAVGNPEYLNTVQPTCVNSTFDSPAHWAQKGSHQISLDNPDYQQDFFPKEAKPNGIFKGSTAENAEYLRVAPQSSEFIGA
T3 sequence (P52333 whole entry): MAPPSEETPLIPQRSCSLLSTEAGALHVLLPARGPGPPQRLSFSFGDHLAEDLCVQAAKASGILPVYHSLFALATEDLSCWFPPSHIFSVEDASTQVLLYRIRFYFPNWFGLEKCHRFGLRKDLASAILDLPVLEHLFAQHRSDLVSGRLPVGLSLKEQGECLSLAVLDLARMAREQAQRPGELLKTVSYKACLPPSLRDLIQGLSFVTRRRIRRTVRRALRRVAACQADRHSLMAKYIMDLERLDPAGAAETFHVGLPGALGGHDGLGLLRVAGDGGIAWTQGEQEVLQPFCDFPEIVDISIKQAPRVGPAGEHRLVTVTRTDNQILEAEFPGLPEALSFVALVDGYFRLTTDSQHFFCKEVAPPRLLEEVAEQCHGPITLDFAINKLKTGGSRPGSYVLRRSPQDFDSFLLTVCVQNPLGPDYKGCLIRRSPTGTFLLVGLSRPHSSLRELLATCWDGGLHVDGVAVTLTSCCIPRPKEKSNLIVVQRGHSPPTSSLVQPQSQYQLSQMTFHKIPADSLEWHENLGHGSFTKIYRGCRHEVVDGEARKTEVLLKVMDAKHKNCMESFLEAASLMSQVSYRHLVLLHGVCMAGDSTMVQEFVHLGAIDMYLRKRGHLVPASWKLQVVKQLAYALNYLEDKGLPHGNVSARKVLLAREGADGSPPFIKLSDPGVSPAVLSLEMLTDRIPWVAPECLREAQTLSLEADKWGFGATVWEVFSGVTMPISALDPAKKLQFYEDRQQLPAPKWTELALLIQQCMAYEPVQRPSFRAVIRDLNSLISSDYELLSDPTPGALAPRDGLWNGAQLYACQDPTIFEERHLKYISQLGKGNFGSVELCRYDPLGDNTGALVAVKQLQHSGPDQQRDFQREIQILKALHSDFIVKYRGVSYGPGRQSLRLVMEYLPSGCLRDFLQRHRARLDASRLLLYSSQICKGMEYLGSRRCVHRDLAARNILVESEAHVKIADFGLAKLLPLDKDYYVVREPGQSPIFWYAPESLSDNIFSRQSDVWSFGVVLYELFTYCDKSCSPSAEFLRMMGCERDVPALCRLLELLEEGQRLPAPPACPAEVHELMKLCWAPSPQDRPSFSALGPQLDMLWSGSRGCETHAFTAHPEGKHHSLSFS

Question: Which IC50 (EGFR) does the source give for `CC#CC(=O)N1CC[C@@H](n2cc(-c3ccc(Oc4c(F)cccc4F)cc3)c3c(N)n[nH]c(=O)c32)C1` [TG-1701] here?
Answer: The IC50 was 270 nM.

Question: What about the IC50 (TXK) of the same compound?
Answer: Its IC50 is 136 nM.

Question: And the IC50 (Her2)?
Answer: The IC50 was > 3000 nM.

Question: What about the IC50 (JAK3) of the same compound?
Answer: The IC50 was > 3000 nM.

Question: What about the IC50 (TEC) of the same compound?
Answer: The IC50 was 4 nM.

Question: And the IC50 (ITK)?
Answer: The IC50 was > 3000 nM.

Question: And the IC50 (BTK)?
Answer: The IC50 was 3 nM.
